Assay results published in article PMC9788509, “Arginine Homopeptide of 11 Residues as a Model of Cell-Penetrating Peptides in the Interaction with Bacterial Membranes” (Membranes, 2022).
Values joined by “and” are separate entries in the source; they are usually repeats but may differ in a detail not shown here. Equal values may be shown once. No end group written: not given here.

Assays:
Escherichia coli (ML35) = type: cell-based; conditions: E. coli ML35; 1 × 10^7 CFU/mL; 1% TSB, 10 mM Hepes; 10, 20 and 30 μM peptide, 1 h at 37 °C; serial dilution, 18 h at 37 °C in complete TSB; turbidity; duplicate
Method: (§1) The strains used, Staphylococcus aureus (ATCC 25923) and Escherichia coli (ML35), were obtained from the Public Health Institute of Chile (ISP).
(§2) To determine the antibacterial activity of the peptides, a microplate dilution test was performed. The necessary calculations were completed with a bacterial concentration of 1 × 10^7 CFU/mL and the cells were exposed to 50 µL of Tryptic soy broth (TSB) with 1%, 10 mM of Hepes buffer and 10, 20 and 30 μM of peptide for 1 h at 37 °C. Finally, a serial dilution was performed and incubated for 18 h at 37 °C in complete TSB, and the minimum bactericidal concentration (MCB) was determined depending on the turbidity of the plate. All experiments were completed in duplicate. A synthetic peptide of sequence KKWRWWLKALAKK from the venom of the Bothrops asper snake was used as a positive control for growth inhibition.

[1] = test system: Staphylococcus aureus (ATCC 25923); type: cell-based; conditions: S. aureus ATCC 25923; 1 × 10^7 CFU/mL; 1% TSB, 10 mM Hepes; 10, 20 and 30 μM peptide, 1 h at 37 °C; serial dilution, 18 h at 37 °C in complete TSB; turbidity; duplicate
Method: as §1, §2

S. aureus = assay: Membrane permeabilization by SYTOX green assay; type: cell-based, Staphylococcus aureus; conditions: S. aureus 1 × 10^6 CFU/mL in PBS 1X; 90 µL bacteria, 5 µL peptide at 200 µM, 5 µL SYTOX Green at 100 µM; 30 cycles of one minute at 30 °C; triplicate
Method: (§3) To verify the effect of peptides on cell membrane integrity, a SYTOX green uptake assay was used, as previously described. Briefly, E coli and S. aureus cultures in exponential phase of growth were centrifuged at 2000× g for 5 min and washed with PBS 1X to prepare a solution at a concentration of 1 × 10^6 CFU/mL in PBS 1X. Then, in 100 μL qPCR tubes, 90 µL of the bacterial solution, 5 µL of peptide at 200 µM and 5 µL of SYTOX Green dye at 100 µM were added. The q-PCR tubes were placed in an Applied Biosystems StepOnePlus™ Real-Time PCR Systems thermocycler, programmed with 30 cycles for one minute at 30 °C, using the Syber green filter, recording the fluorescence data at the end of each cycle. Each assay was performed in triplicate.

E coli = assay: Membrane permeabilization by SYTOX green assay; type: cell-based, Escherichia coli; conditions: E. coli 1 × 10^6 CFU/mL in PBS 1X; 90 µL bacteria, 5 µL peptide at 200 µM, 5 µL SYTOX Green at 100 µM; 30 cycles of one minute at 30 °C; triplicate
Method: as §3

Molecule: C[C@H](N)C(=O)N[C@@H](CCCNC(=N)N)C(=O)N[C@@H](CCCNC(=N)N)C(=O)N[C@@H](CCCNC(=N)N)C(=O)N[C@@H](CCCNC(=N)N)C(=O)N[C@@H](CCCNC(=N)N)C(=O)N[C@@H](CCCNC(=N)N)C(=O)N[C@@H](CCCNC(=N)N)C(=O)N[C@@H](CCCNC(=N)N)C(=O)N[C@@H](CCCNC(=N)N)C(=O)N[C@@H](CCCNC(=N)N)C(N)=O [A1]
- Minimum Bactericidal Concentration (Escherichia coli (ML35)): >30 µM

Molecule: C[C@H](NC(=O)[C@H](CCCNC(=N)N)NC(=O)[C@H](CCCNC(=N)N)NC(=O)[C@H](CCCNC(=N)N)NC(=O)[C@H](CCCNC(=N)N)NC(=O)[C@H](CCCNC(=N)N)NC(=O)[C@H](CCCNC(=N)N)NC(=O)[C@H](CCCNC(=N)N)NC(=O)[C@H](CCCNC(=N)N)NC(=O)[C@H](CCCNC(=N)N)NC(=O)[C@@H](N)CCCNC(=N)N)C(N)=O [A11]
- Minimum Bactericidal Concentration (Escherichia coli (ML35)): 20 µM
- Minimum Bactericidal Concentration [1]: 8 µM
- Percentage of polyproline II, Equation (2): 49% (2×) and 45% and 50%

Molecule: CC(C)C[C@H](N)C(=O)N[C@@H](CCCNC(=N)N)C(=O)N[C@@H](CCCNC(=N)N)C(=O)N[C@@H](CCCNC(=N)N)C(=O)N[C@@H](CCCNC(=N)N)C(=O)N[C@@H](CCCNC(=N)N)C(=O)N[C@@H](CCCNC(=N)N)C(=O)N[C@@H](CCCNC(=N)N)C(=O)N[C@@H](CCCNC(=N)N)C(=O)N[C@@H](CCCNC(=N)N)C(=O)N[C@@H](CCCNC(=N)N)C(N)=O [L1]
- Minimum Bactericidal Concentration (Escherichia coli (ML35)): 13 µM
- Minimum Bactericidal Concentration [1]: 9 µM

Molecule: CC(C)C[C@H](NC(=O)[C@H](CCCNC(=N)N)NC(=O)[C@H](CCCNC(=N)N)NC(=O)[C@H](CCCNC(=N)N)NC(=O)[C@H](CCCNC(=N)N)NC(=O)[C@H](CCCNC(=N)N)NC(=O)[C@H](CCCNC(=N)N)NC(=O)[C@H](CCCNC(=N)N)NC(=O)[C@H](CCCNC(=N)N)NC(=O)[C@H](CCCNC(=N)N)NC(=O)[C@@H](N)CCCNC(=N)N)C(N)=O [L11]
- Minimum Bactericidal Concentration (Escherichia coli (ML35)): 30 µM

Molecule: N=C(N)NCCC[C@H](NC(=O)[C@H](CCCNC(=N)N)NC(=O)[C@H](CCCNC(=N)N)NC(=O)[C@H](CCCNC(=N)N)NC(=O)[C@H](CCCNC(=N)N)NC(=O)[C@H](CCCNC(=N)N)NC(=O)[C@H](CCCNC(=N)N)NC(=O)[C@H](CCCNC(=N)N)NC(=O)[C@H](CCCNC(=N)N)NC(=O)[C@H](CCCNC(=N)N)NC(=O)[C@@H]1CCCN1)C(N)=O [P1]
- Minimum Bactericidal Concentration (Escherichia coli (ML35)): 18 µM

Molecule: N=C(N)NCCC[C@H](NC(=O)[C@H](CCCNC(=N)N)NC(=O)[C@H](CCCNC(=N)N)NC(=O)[C@H](CCCNC(=N)N)NC(=O)[C@H](CCCNC(=N)N)NC(=O)[C@@H](N)CCCNC(=N)N)C(=O)N[C@@H](CCCNC(=N)N)C(=O)N[C@@H](CCCNC(=N)N)C(=O)N[C@@H](CCCNC(=N)N)C(=O)N[C@@H](CCCNC(=N)N)C(=O)N1CCC[C@H]1C(N)=O [P11]
- Minimum Bactericidal Concentration (Escherichia coli (ML35)): 30 µM
- Minimum Bactericidal Concentration [1]: 18 µM

Molecule: N=C(N)NCCC[C@H](NC(=O)[C@H](CCCNC(=N)N)NC(=O)[C@H](CCCNC(=N)N)NC(=O)[C@H](CCCNC(=N)N)NC(=O)[C@H](CCCNC(=N)N)NC(=O)[C@H](CCCNC(=N)N)NC(=O)[C@H](CCCNC(=N)N)NC(=O)[C@H](CCCNC(=N)N)NC(=O)[C@H](CCCNC(=N)N)NC(=O)[C@H](CCCNC(=N)N)NC(=O)[C@@H](N)CCCNC(=N)N)C(N)=O [R11]
- Minimum Bactericidal Concentration (Escherichia coli (ML35)): 30 µM

Molecule: N=C(N)NCCC[C@H](NC(=O)[C@H](CCCNC(=N)N)NC(=O)[C@H](CCCNC(=N)N)NC(=O)[C@H](CCCNC(=N)N)NC(=O)[C@H](CCCNC(=N)N)NC(=O)[C@H](CCCNC(=N)N)NC(=O)[C@H](CCCNC(=N)N)NC(=O)[C@H](CCCNC(=N)N)NC(=O)[C@H](CCCNC(=N)N)NC(=O)[C@H](CCCNC(=N)N)NC(=O)[C@@H](N)Cc1c[nH]c2ccccc12)C(N)=O [W1]
- Minimum Bactericidal Concentration (Escherichia coli (ML35)): 30 µM
- Minimum Bactericidal Concentration [1]: >30 µM

Molecule: N=C(N)NCCC[C@H](NC(=O)[C@H](CCCNC(=N)N)NC(=O)[C@H](CCCNC(=N)N)NC(=O)[C@H](CCCNC(=N)N)NC(=O)[C@H](CCCNC(=N)N)NC(=O)[C@H](CCCNC(=N)N)NC(=O)[C@H](CCCNC(=N)N)NC(=O)[C@H](CCCNC(=N)N)NC(=O)[C@H](CCCNC(=N)N)NC(=O)[C@@H](N)CCCNC(=N)N)C(=O)N[C@@H](Cc1c[nH]c2ccccc12)C(N)=O [W11]
- Minimum Bactericidal Concentration (Escherichia coli (ML35)): 20 µM
- Minimum Bactericidal Concentration [1]: 10 µM

Molecule: KKWRWWLKALAKK
- SYTOX green fluorescence (membrane permeabilization) (S. aureus): high fluorescence
- SYTOX green fluorescence (membrane permeabilization) (E coli): high fluorescence

Molecule: RARRRRRRRRR-NH2 [A2]
- Minimum Bactericidal Concentration (Escherichia coli (ML35)): 18 µM

Molecule: RLRRRRRRRRR-NH2 [L2]
- Minimum Bactericidal Concentration (Escherichia coli (ML35)): 8 µM
- Minimum Bactericidal Concentration [1]: 12 µM

Molecule: RPRRRRRRRRR-NH2 [P2]
- Minimum Bactericidal Concentration (Escherichia coli (ML35)): 30 µM

Molecule: RRARRRRRRRR-NH2 [A3]
- Minimum Bactericidal Concentration (Escherichia coli (ML35)): 10 µM

Molecule: RRLRRRRRRRR-NH2 [L3]
- Minimum Bactericidal Concentration (Escherichia coli (ML35)): 10 µM
- Minimum Bactericidal Concentration [1]: 9 µM

Molecule: RRPRRRRRRRR-NH2 [P3]
- Minimum Bactericidal Concentration (Escherichia coli (ML35)): 28 µM
- Minimum Bactericidal Concentration [1]: 8 µM

Molecule: RRRARRRRRRR-NH2 [A4]
- Minimum Bactericidal Concentration (Escherichia coli (ML35)): 26 µM
- Percentage of polyproline II, Equation (2): 46% (2×) and 58% and 51%

Molecule: RRRLRRRRRRR-NH2 [L4]
- Minimum Bactericidal Concentration (Escherichia coli (ML35)): 20 µM
- Minimum Bactericidal Concentration [1]: 9 µM

Molecule: RRRPRRRRRRR-NH2 [P4]
- Minimum Bactericidal Concentration (Escherichia coli (ML35)): >30 µM
- Percentage of polyproline II, Equation (2): 49% (2×) and 29% and 41%

Molecule: RRRRARRRRRR-NH2 [A5]
- Minimum Bactericidal Concentration (Escherichia coli (ML35)): 20 µM

Molecule: RRRRLRRRRRR-NH2 [L5]
- Minimum Bactericidal Concentration (Escherichia coli (ML35)): 18 µM
- Minimum Bactericidal Concentration [1]: 8 µM

Molecule: RRRRPRRRRRR-NH2 [P5]
- Minimum Bactericidal Concentration (Escherichia coli (ML35)): 28 µM
- Minimum Bactericidal Concentration [1]: 8 µM

Molecule: RRRRRARRRRR-NH2 [A6]
- Minimum Bactericidal Concentration (Escherichia coli (ML35)): 26 µM

Molecule: RRRRRLRRRRR-NH2 [L6]
- Minimum Bactericidal Concentration (Escherichia coli (ML35)): >30 µM
- Minimum Bactericidal Concentration [1]: 28 µM

Molecule: RRRRRPRRRRR-NH2 [P6]
- Minimum Bactericidal Concentration (Escherichia coli (ML35)): 18 µM

Molecule: RRRRRRARRRR-NH2 [A7]
- Minimum Bactericidal Concentration (Escherichia coli (ML35)): 20 µM

Molecule: RRRRRRLRRRR-NH2 [L7]
- Minimum Bactericidal Concentration (Escherichia coli (ML35)): 9 µM

Molecule: RRRRRRPRRRR-NH2 [P7]
- Minimum Bactericidal Concentration (Escherichia coli (ML35)): 10 µM
- Minimum Bactericidal Concentration [1]: 7 µM

Molecule: RRRRRRRARRR-NH2 [A8]
- Minimum Bactericidal Concentration (Escherichia coli (ML35)): 30 µM

Molecule: RRRRRRRLRRR-NH2 [L8]
- Minimum Bactericidal Concentration (Escherichia coli (ML35)): 18 µM
- Percentage of polyproline II, Equation (2): 51% and 65% (2×) and 62%

Molecule: RRRRRRRPRRR-NH2 [P8]
- Minimum Bactericidal Concentration (Escherichia coli (ML35)): 30 µM
- Minimum Bactericidal Concentration [1]: 9 µM
- Percentage of polyproline II, Equation (2): 49% (2×) and 40% and 50%

Molecule: RRRRRRRRARR-NH2 [A9]
- Minimum Bactericidal Concentration (Escherichia coli (ML35)): >30 µM

Molecule: RRRRRRRRLRR-NH2 [L9]
- Minimum Bactericidal Concentration (Escherichia coli (ML35)): 8 µM

Molecule: RRRRRRRRPRR-NH2 [P9]
- Minimum Bactericidal Concentration (Escherichia coli (ML35)): 20 µM
- Minimum Bactericidal Concentration [1]: 10 µM
- Percentage of polyproline II, Equation (2): 41% (2×) and 27% and 43%

Molecule: RRRRRRRRRAR-NH2 [A10]
- Minimum Bactericidal Concentration (Escherichia coli (ML35)): 10 µM
- Minimum Bactericidal Concentration [1]: 6 µM

Molecule: RRRRRRRRRLR-NH2 [L10]
- Minimum Bactericidal Concentration (Escherichia coli (ML35)): 20 µM

Molecule: RRRRRRRRRPR-NH2 [P10]
- Minimum Bactericidal Concentration (Escherichia coli (ML35)): 30 µM
- Minimum Bactericidal Concentration [1]: 30 µM

Molecule: RRRRRRRRRWR-NH2 [W10]
- Minimum Bactericidal Concentration (Escherichia coli (ML35)): 20 µM
- Percentage of polyproline II, Equation (2): 46% and 68% and 49% (2×)

Molecule: RRRRRRRRWRR-NH2 [W9]
- Minimum Bactericidal Concentration (Escherichia coli (ML35)): 20 µM
- Minimum Bactericidal Concentration [1]: 10 µM

Molecule: RRRRRRRWRRR-NH2 [W8]
- Minimum Bactericidal Concentration (Escherichia coli (ML35)): 20 µM
- Minimum Bactericidal Concentration [1]: 20 µM

Molecule: RRRRRRWRRRR-NH2 [W7]
- Minimum Bactericidal Concentration (Escherichia coli (ML35)): 14 µM
- Minimum Bactericidal Concentration [1]: 8 µM

Molecule: RRRRRWRRRRR-NH2 [W6]
- Minimum Bactericidal Concentration (Escherichia coli (ML35)): 15 µM
- Minimum Bactericidal Concentration [1]: 20 µM

Molecule: RRRRWRRRRRR-NH2 [W5]
- Minimum Bactericidal Concentration (Escherichia coli (ML35)): 20 µM
- Minimum Bactericidal Concentration [1]: 10 µM

Molecule: RRRWRRRRRRR-NH2 [W4]
- Minimum Bactericidal Concentration (Escherichia coli (ML35)): 20 µM
- Minimum Bactericidal Concentration [1]: 20 µM

Molecule: RRWRRRRRRRR-NH2 [W3]
- Minimum Bactericidal Concentration (Escherichia coli (ML35)): >30 µM
- Minimum Bactericidal Concentration [1]: 20 µM

Molecule: RWRRRRRRRRR-NH2 [W2]
- Minimum Bactericidal Concentration (Escherichia coli (ML35)): >30 µM
- Minimum Bactericidal Concentration [1]: 30 µM
- Percentage of polyproline II, Equation (2): 56% (2×) and 64% and 47%
